Tests used:
NFκB = assay: NFκB-response element luciferase reporter in L1 preadipocytes; assay type: cell-based; conditions: prieurianin 2 μM
[1] = assay type: in vivo, mice
Procedure: FIG. 15B. Genetically diabetic Ceacam^−/− knockout mice were fed high fat diet for fattening for 4 weeks followed by daily prieurianin treatment (3 or 5 mg/kg) for 21 days. Vehicle treated db/db and Ceacam^−/− mice were given equivolume of Captisol. Results are the means S.E. of 10 animals per group.
The effects of prieurianin were tested in three additional mouse models of obesity including the genetically hyperinsulinemic leptin-receptor deficient db/db, the Ceacam−/− glucose intolerant/diabetic, and the diet-induced obese mice. Prieurianin was administered intraperitoneally (i.p.) to 12-14 week-old db/db mice daily (3 or 5 mg/kg) for 30 days. The diet-induced obese Ceacam−/− diabetic mice were fed a high fat diet for 4 weeks for fattening, followed by prieurianin treatment (3 or 5 mg/kg) for 3 weeks. Vehicle treated controls received equivolume injections of Captisol (CyDex Inc., Lenexa, Kans.). Body weight and food intake were measured every three days, and blood samples were collected at the end of the experiment.

With `C=C1[C@@H]([C@@]2(C)[C@@H](OC(C)=O)CC(=O)O[C@](C)(COC(C)=O)[C@@H]2C(=O)OC)[C@@H](OC=O)[C@H](OC(=O)[C@H](O)[C@H](C)CC)[C@@]2(C)[C@H](c3ccoc3)CC(=O)[C@]12O` [prieurianin] the “NFκB-response element mediated transcription” value (NFκB) was “induces transactivation from the NFκB-response element mediated transcription”, the “body weight relative to pre-fattening” value ([1]; 3 mg/kg treated group) was “Body weight returned to pre-fattening level” and the toxicity ([1]; Ceacam−/− mice given 5 mg/kg) was “euthanized after 14 days of treatment due to severe weight loss and unknown toxicity”. For the same molecule, the “subcutaneous or visceral fats in postmortem analysis” value ([1]; Ceacam−/− mice given 5 mg/kg, relative to controls) was “Little subcutaneous or visceral fats were observed”, the body weight loss ([1]; diet-induced obese Ceacam−/− mice, 3 or 5 mg/kg) was 20-26% and the reduced food intake ([1]; diet-induced obese Ceacam−/− mice, compared to controls) was over 50%.

Reference: patent US20100284925A1, “Small Molecule Intervention for Obesity” (priority 2006, published 2010)
